Data published in ChEMBL document CHEMBL1156451 (J Biol Chem, 2007).
≈ marks a conversion by molar mass, not a printed value. Calls of active or inactive are those of the source. The calls are words filed in the database; no cut-off is given here. Where a SMILES comes first, the peptide text is derived from it.

Legend:
Staphylococcus aureus = experiment: Antibacterial activity against methicillin-resistant Staphylococcus aureus ATCC 43300 after 24 hrs in Mueller-Hinton broth medium; type: functional; details: ATCC 43300, 24 h
Pseudomonas aeruginosa = experiment: Antibacterial activity against Pseudomonas aeruginosa CUN 4158-02 after 24 hrs in Mueller-Hinton broth medium; type: functional
Escherichia coli [1] = experiment: Antibacterial activity against Escherichia coli K12 ATCC 23716 after 24 hrs in Mueller-Hinton broth medium; type: functional; details: K12, 24 h
[2] = Toxicity in human erythrocytes assessed as hemolysis; type: cell-based; details: erythrocyte
Brucella abortus [3] = experiment: Antibacterial activity against Brucella abortus 9.19 (per-) after 24 hrs in Mueller-Hinton broth medium; type: functional
Escherichia coli [4] = experiment: Antibacterial activity against Escherichia coli ATCC 25922 after 24 hrs in Mueller-Hinton broth medium; type: functional; details: ATCC 25922, 24 h
HeLa [5] = experiment: Cytotoxicity against human HeLa cells at 100 ug/ml after 24 hrs by MTT assay relative to control; type: functional
Acinetobacter baumannii = experiment: Antibacterial activity against Acinetobacter baumannii ATCC 19606 after 24 hrs in Mueller-Hinton broth medium; type: functional; details: ATCC 19606, 24 h
Brucella abortus [6] = experiment: Antibacterial activity against Brucella abortus 9.49 (per-) after 48 hrs in Mueller-Hinton broth medium; type: functional
[7] = test system: Bordetella bronchiseptica; experiment: Antibacterial activity against Bordetella bronchiseptica CUN 11844-99 after 24 hrs in Mueller-Hinton broth medium; type: functional
Escherichia coli [8] = experiment: Antibacterial activity against Escherichia coli K12 ATCC 23716 in 10% Luria-Bertani medium/90% Hepes buffer at pH 7.0; type: functional
HeLa [9] = experiment: Cytotoxicity against human HeLa cells at 100 ug/ml after 24 hrs by neutral red uptake assay relative to control; type: functional
Escherichia coli [10] = experiment: Effect on morphology in Escherichia coli K12 ATCC 23716 assessed as formation of high electrodense clusters at 20 uM after 30 mins by transmission electron microscopy; type: functional, organism-based
Escherichia coli [11] = experiment: Effect on morphology in Escherichia coli K12 ATCC 23716 assessed as detachment of outer membrane from inner membrane at 4 uM after 30 mins by transmission electron microscopy; type: functional, organism-based

SMILES	MBC (Staphylococcus aureus)	MIC (Staphylococcus aureus)	MBC (Pseudomonas aeruginosa)	MIC (Pseudomonas aeruginosa)	MBC (Escherichia coli [1])	MIC (Escherichia coli [1])	Activity [2]	MBC (Brucella abortus [3])	MBC (Escherichia coli [4])	MIC (Escherichia coli [4])	Activity (HeLa [5])	MBC (Acinetobacter baumannii)	MIC (Acinetobacter baumannii)	MIC (Brucella abortus [6])	MBC [7]	MIC [7]	MBC (Escherichia coli [8])	MIC (Escherichia coli [8])	Activity (HeLa [9])	other results
CC[C@H](C)[C@H](NC(=O)[C@H](CCCCN)NC(=O)[C@H](CCCCN)NC(=O)[C@H](CO)NC(=O)[C@@H](NC(=O)CNC(=O)[C@H](CCCNC(=N)N)NC(=O)[C@H](CC(C)C)NC(=O)[C@@H](NC(=O)[C@@H](N)CCCCN)[C@@H](C)CC)C(C)C)C(=O)N[C@@H](CCSC)C(=O)N[C@@H](CCCNC(=N)N)C(=O)N[C@H](C(=O)N[C@@H](Cc1ccccc1)C(=O)N[C@@H](CC(C)C)C(=O)N[C@@H](CCCNC(=N)N)C(=O)N[C@@H](CCCNC(=N)N)C(=O)N[C@H](C(=O)N[C@@H](CC(C)C)C(=O)N[C@H](C(=O)NCC(=O)N[C@@H](CCCCN)C(=O)N[C@@H](CCCCN)C(N)=O)[C@@H](C)O)[C@@H](C)CC)[C@@H](C)O (H-KILRGVSKKIMRTFLRRILTGKK-NH2)	256 µg/mL (≈ 93.3 µM)	64 µg/mL (≈ 23.3 µM)	4 µg/mL (≈ 1.46 µM)	4 µg/mL (≈ 1.46 µM)	8 µg/mL (≈ 2.92 µM)	8 µg/mL (≈ 2.92 µM)	Toxic	4 µg/mL (≈ 1.46 µM)	4 µg/mL (≈ 1.46 µM)	4 µg/mL (≈ 1.46 µM)	inactive	4 µg/mL (≈ 1.46 µM)	4 µg/mL (≈ 1.46 µM)	4 µg/mL (≈ 1.46 µM)	2 µg/mL (≈ 0.729 µM)	2 µg/mL (≈ 0.729 µM)	25 µg/mL (≈ 9.12 µM)	19 µg/mL (≈ 6.93 µM)		
CC[C@H](C)[C@H](NC(=O)[C@H](CCCNC(=N)N)NC(=O)[C@H](CCCNC(=N)N)NC(=O)[C@H](CC(C)C)NC(=O)[C@H](Cc1ccccc1)NC(=O)[C@@H](NC(=O)[C@H](CCCNC(=N)N)NC(=O)[C@H](CCSC)NC(=O)[C@@H](NC(=O)[C@H](CCCCN)NC(=O)[C@H](CCCCN)NC(=O)[C@H](CO)NC(=O)[C@@H](NC(=O)CNC(=O)[C@H](CCCNC(=N)N)NC(=O)[C@H](CC(C)C)NC(=O)[C@@H](NC(=O)[C@@H](N)CCCCN)[C@@H](C)CC)C(C)C)[C@@H](C)CC)[C@@H](C)O)C(=O)N[C@@H](CO)C(=O)N[C@@H](CCCCN)C(=O)N[C@@H](CC(=O)O)C(=O)N[C@H](C(=O)N[C@@H](CC(C)C)C(=O)N[C@H](C(=O)NCC(=O)N[C@@H](CCCCN)C(=O)N[C@@H](CCCCN)C(N)=O)[C@@H](C)O)[C@@H](C)CC (H-KILRGVSKKIMRTFLRRISKDILTGKK-NH2)	128 µg/mL (≈ 40.2 µM)	128 µg/mL (≈ 40.2 µM)	4 µg/mL (≈ 1.26 µM)	4 µg/mL (≈ 1.26 µM)	2 µg/mL (≈ 0.628 µM)	2 µg/mL (≈ 0.628 µM)	Toxic	4 µg/mL (≈ 1.26 µM)	4 µg/mL (≈ 1.26 µM)	4 µg/mL (≈ 1.26 µM)	38.4%	2 µg/mL (≈ 0.628 µM)	2 µg/mL (≈ 0.628 µM)	2 µg/mL (≈ 0.628 µM)	4 µg/mL (≈ 1.26 µM)	4 µg/mL (≈ 1.26 µM)	16 µg/mL (≈ 5.02 µM)	8 µg/mL (≈ 2.51 µM)	24.8%	
CC[C@H](C)[C@H](NC(=O)[C@H](CCCNC(=N)N)NC(=O)[C@H](CCCNC(=N)N)NC(=O)[C@H](CC(C)C)NC(=O)[C@H](Cc1ccccc1)NC(=O)[C@@H](NC(=O)[C@H](CCCNC(=N)N)NC(=O)[C@H](CCSC)NC(=O)[C@@H](NC(=O)[C@H](CCCCN)NC(=O)[C@H](CCCCN)NC(=O)[C@H](CS)NC(=O)[C@@H](NC(=O)CNC(=O)[C@H](CCCNC(=N)N)NC(=O)[C@H](CC(C)C)NC(=O)[C@@H](NC(=O)[C@@H](N)CCCCN)[C@@H](C)CC)C(C)C)[C@@H](C)CC)[C@@H](C)O)C(=O)N[C@@H](CO)C(=O)N[C@@H](CCCCN)C(=O)N[C@@H](CC(=O)O)C(=O)N[C@H](C(=O)N[C@@H](CC(C)C)C(=O)N[C@H](C(=O)NCC(=O)N[C@@H](CCCCN)C(=O)N[C@@H](CCCCN)C(=O)O)[C@@H](C)O)[C@@H](C)CC (H-KILRGVCKKIMRTFLRRISKDILTGKK-OH)	256 µg/mL (≈ 79.9 µM)	256 µg/mL (≈ 79.9 µM)	32 µg/mL (≈ 9.99 µM)	32 µg/mL (≈ 9.99 µM)	0.25 µg/mL (≈ 0.078 µM)	0.25 µg/mL (≈ 0.078 µM)	Toxic	32 µg/mL (≈ 9.99 µM)	16 µg/mL (≈ 5 µM)	16 µg/mL (≈ 5 µM)	28.7%	2 µg/mL (≈ 0.624 µM)	2 µg/mL (≈ 0.624 µM)	32 µg/mL (≈ 9.99 µM)	4 µg/mL (≈ 1.25 µM)	4 µg/mL (≈ 1.25 µM)	32 µg/mL (≈ 9.99 µM)	16 µg/mL (≈ 5 µM)	31.6%	Activity (Escherichia coli [10]): Active; Activity (Escherichia coli [11]): Active
